Results on 21 molecules are retold here after US10494378B2, “Fused ring pyrimidine compound, intermediate, and preparation method, composition and use thereof” (GUANGZHOU MAXINOVEL PHARMACEUTICALS CO., LTD., priority 2015, dated 2019).

One may read the IC50 as the concentration that inhibits the measured activity by half.

What all share (assay type): biochemical
One test addresses T1, JAK3 kinase (Homo sapiens, UniProt P52333).
T1 construct: purchased Carna 08-046
T1 sequence (P52333 1-1124): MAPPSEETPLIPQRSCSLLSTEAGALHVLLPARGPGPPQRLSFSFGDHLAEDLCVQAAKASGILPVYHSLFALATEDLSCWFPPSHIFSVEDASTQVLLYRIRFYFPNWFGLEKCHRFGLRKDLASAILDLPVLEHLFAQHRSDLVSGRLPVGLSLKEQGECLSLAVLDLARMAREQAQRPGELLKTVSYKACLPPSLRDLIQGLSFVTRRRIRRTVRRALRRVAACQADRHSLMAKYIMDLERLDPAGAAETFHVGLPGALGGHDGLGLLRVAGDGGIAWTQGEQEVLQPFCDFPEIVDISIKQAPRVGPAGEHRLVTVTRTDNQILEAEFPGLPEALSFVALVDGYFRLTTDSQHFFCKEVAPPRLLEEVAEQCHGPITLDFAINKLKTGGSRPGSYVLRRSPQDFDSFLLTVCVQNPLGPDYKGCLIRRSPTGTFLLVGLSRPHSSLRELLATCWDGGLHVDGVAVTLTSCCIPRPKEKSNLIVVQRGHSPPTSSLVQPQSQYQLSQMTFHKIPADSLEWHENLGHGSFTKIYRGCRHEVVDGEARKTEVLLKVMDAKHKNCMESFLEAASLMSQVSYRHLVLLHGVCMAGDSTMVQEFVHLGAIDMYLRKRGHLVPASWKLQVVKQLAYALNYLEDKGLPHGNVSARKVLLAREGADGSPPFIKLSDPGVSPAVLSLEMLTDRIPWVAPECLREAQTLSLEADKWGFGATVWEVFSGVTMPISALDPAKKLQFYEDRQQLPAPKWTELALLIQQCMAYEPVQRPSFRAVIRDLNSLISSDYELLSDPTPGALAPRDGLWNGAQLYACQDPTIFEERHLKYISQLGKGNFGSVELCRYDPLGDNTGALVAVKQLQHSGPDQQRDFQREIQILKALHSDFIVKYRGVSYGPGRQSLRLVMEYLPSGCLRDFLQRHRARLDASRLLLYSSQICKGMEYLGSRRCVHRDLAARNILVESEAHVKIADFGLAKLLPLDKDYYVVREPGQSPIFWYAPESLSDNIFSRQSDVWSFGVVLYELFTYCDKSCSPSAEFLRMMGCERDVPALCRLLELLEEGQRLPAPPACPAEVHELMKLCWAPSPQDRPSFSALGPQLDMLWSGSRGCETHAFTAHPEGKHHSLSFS
The test can be described thus: IC50 evaluation assay on JAK3 kinase inhibition (Caliper). The conditions noted are these: adenosine triphosphate at Km; 1 hour at 28° C.; average of two tests; read-out: IC50 (nM) inhibiting JAK 3 kinase. The procedure:
(§1) 1. The compound was dissolved in 100% DMSO, diluted into solutions with appropriate concentration gradients with water according to experimental requirement, and added to a 384-well plate.
(§2) 2. JAK2 kinase (Carna, Cat. No. 08-045, Lot. No. 07CBS-1927) and JAK3 kinase (Carna, Cat. No. 08-046, Lot. No. 08CBS-0371) were diluted to the optimum concentration with the following buffer solution: 50 mM HEPES, pH 7.5, 0.0015% Brij-35, 2 mM DTT. JAK1 kinase (Carna, Cat. No. 08-144, Lot. No. 11CBS-0144D) was diluted to the optimum concentration with the following buffer solution: 25 mM HEPES pH 7.5, 0.01% Brij-35, 2 mM DTT, 0.01M Triton. Transfer to the 384-well plate and incubated with the compound for a period of time.
(§3) 3. […] The substrate of JAK1 was diluted to the optimum concentration with the following buffer: 25 mM HEPES, pH 7.5, 0.01% Brij-35, 10 mM MgCl2, 0.01M Triton, adenosine triphosphate at Km. Add to the 384-well plate to initiate there action and react for 1 hour at 28° C.
(§4) 4. 1 Eq. of sulfuric acid solution was added to terminate the reaction, the conversion rate was read with Caliper Reader. The inhibition rate was calculated as the average of two tests.

Another test addresses T2, JAK2 kinase (Homo sapiens, UniProt O60674).
T2 construct: purchased Carna 08-045
The test is described as follows: IC50 evaluation assay on JAK2 kinase inhibition (Caliper). The conditions noted are these: adenosine triphosphate at Km; 1 hour at 28° C.; average of two tests; read-out: IC50 (nM) inhibiting JAK 2 kinase. As to the method:
as §1, §2, §3, §4

Another test has as its target T3, JAK1 kinase (Homo sapiens, UniProt P23458).
T3 construct: purchased Carna 08-144
The test is described as follows: IC50 evaluation assay on JAK1 kinase inhibition (Caliper). As to conditions: adenosine triphosphate at Km; 1 hour at 28° C.; average of two tests; read-out: IC50 (nM) inhibiting JAK 1 kinase. The procedure: as §1, §2, §3, §4

T2 sequence (O60674 whole entry): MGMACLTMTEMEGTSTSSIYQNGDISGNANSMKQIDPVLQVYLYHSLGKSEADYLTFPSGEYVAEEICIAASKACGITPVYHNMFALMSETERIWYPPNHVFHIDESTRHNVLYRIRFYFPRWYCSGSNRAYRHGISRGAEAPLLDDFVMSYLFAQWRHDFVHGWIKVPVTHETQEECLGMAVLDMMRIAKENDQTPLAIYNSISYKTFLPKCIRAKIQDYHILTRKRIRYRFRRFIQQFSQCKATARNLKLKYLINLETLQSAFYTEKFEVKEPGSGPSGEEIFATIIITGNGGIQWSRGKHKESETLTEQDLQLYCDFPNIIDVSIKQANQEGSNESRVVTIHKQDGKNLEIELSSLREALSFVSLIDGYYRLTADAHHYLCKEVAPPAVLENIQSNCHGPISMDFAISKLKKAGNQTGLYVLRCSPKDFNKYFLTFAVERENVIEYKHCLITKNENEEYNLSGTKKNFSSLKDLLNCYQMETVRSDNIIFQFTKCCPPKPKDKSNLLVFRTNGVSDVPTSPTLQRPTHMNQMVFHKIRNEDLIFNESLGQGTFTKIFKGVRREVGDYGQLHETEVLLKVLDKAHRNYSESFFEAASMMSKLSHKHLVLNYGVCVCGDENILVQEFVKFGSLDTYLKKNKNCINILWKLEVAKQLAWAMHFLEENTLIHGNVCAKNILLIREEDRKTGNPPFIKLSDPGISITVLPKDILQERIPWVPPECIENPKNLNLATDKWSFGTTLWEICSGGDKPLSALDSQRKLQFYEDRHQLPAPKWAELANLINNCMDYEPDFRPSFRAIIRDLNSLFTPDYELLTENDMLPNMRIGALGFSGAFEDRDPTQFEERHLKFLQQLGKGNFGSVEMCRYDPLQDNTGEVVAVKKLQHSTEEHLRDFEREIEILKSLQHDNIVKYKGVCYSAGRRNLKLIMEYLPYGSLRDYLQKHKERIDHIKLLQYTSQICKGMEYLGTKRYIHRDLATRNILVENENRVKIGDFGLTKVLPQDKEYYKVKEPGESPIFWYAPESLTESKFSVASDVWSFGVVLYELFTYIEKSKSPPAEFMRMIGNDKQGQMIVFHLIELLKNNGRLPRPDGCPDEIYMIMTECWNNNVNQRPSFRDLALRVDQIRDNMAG
T3 sequence (P23458 whole entry): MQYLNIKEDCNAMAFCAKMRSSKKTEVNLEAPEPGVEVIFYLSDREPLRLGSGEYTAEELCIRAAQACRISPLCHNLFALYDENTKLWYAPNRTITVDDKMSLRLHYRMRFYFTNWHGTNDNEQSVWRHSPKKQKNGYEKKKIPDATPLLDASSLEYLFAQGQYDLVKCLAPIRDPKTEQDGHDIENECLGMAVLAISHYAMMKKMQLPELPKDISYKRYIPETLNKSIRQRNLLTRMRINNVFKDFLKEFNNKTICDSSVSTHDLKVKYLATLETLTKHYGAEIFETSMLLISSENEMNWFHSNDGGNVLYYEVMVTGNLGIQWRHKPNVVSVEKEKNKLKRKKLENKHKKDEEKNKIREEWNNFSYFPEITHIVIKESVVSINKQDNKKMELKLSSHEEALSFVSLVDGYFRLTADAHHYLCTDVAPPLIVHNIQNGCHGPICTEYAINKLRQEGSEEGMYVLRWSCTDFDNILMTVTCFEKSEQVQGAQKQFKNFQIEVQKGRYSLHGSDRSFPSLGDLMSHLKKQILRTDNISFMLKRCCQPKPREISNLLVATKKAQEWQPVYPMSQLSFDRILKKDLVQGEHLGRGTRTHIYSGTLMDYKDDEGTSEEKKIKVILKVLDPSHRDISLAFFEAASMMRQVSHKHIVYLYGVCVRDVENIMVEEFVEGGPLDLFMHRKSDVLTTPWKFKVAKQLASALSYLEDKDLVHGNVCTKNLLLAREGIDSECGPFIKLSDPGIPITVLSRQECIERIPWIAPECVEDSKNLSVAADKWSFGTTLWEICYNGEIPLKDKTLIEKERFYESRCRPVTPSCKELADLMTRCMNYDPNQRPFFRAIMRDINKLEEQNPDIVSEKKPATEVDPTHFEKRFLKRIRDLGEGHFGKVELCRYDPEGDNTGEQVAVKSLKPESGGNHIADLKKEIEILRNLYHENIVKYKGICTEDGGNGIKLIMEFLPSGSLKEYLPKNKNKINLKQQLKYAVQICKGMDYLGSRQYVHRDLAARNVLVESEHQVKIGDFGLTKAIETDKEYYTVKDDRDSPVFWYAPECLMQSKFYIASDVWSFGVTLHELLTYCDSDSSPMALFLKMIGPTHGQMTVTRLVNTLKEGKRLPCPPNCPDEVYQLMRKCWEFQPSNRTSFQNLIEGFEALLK

Regarding `COc1ccccc1-c1c(C)sc2cnc(Nc3cnn(C)c3)nc12` [Compound 1, N-[7-(2-methoxyphenyl)-6-methylthieno[3,2-d]pyrimidinyl-2-yl]-1-methyl-1H-pyrazol-4-amine], the IC50 was determined as 1.7 nM at JAK3 kinase, 1.7 nM on JAK2 kinase and 6.8 nM on JAK1 kinase.

Regarding `Cc1sc2cnc(Nc3cnn(C)c3)nc2c1-c1cccc2c1OCC2` [Compound 2, N-[7-(2,3-dihydro-1-benzofuran-7-yl)-6-methylthieno[3,2-d]pyrimidinyl-2-yl]-1-methyl-1H-pyrazol-4-amine], the IC50 at JAK3 kinase is 0.99 nM; on JAK2 kinase, 1.8 nM; at JAK1 kinase it was 14 nM.

For the molecule `COc1cc(S(C)(=O)=O)ccc1-c1c(C)sc2cnc(Nc3cnn(C)c3)nc12` [Compound 4], the IC50 on JAK3 kinase was 3.1 nM; at JAK2 kinase it was 1.3 nM; on JAK1 kinase it was 16 nM.

For the molecule `COc1cc(Cl)ccc1-c1c(C)sc2cnc(Nc3cnn(C)c3)nc12` [Compound 6, N-[7-(4-chloro-2-dimethoxyphenyl)-6-methylthieno[3,2-d]pyrimidinyl-2-yl]-1-methyl-1H-pyrazol-4-amine], the IC50 at JAK3 kinase amounted to 1.4 nM; at JAK2 kinase, 1.4 nM; on JAK1 kinase it was 12 nM.

Consider `COc1ccc(-c2c(C)sc3cnc(Nc4cnn(C)c4)nc23)c(OC)c1` [Compound 7, N-[7-(2,4-dimethoxyphenyl)-6-methylthieno[3,2-d]pyrimidinyl-2-yl]-1-methyl-1H-pyrazol-4-amine], for which the IC50 on JAK3 kinase is 1.8 nM; on JAK2 kinase, 1.2 nM; on JAK1 kinase, 13 nM.

With `Cc1sc2cnc(Nc3cnn(C)c3)nc2c1-c1ccccc1OC(F)F` [Compound 10, N-{7-[2-(difluoromethoxy)phenyl]-6-methylthieno[3,2-d]pyrimidinyl-2-yl]-1-methyl-1H-pyrazol-4-amine], the IC50 on JAK3 kinase was found to be 3.6 nM; on JAK2 kinase, 1.1 nM; on JAK1 kinase it was 10.6 nM.

In the case of `COc1cc(OCCCS(C)(=O)=O)ccc1-c1c(C)sc2cnc(Nc3cnn(C)c3)nc12` [Compound 11, N-{7-[4-(3-methylsulfonylpropoxy)-2-methoxyphenyl]-6-methylthieno[3,2-d]pyrimidinyl-2-yl]-1-methyl-1H-pyrazol-4-amine], the IC50 on JAK3 kinase was 0.73 nM; at JAK2 kinase, 0.94 nM; on JAK1 kinase it was 5.1 nM.

Take `COc1cc(O[C@@H]2CCOC2)ccc1-c1c(C)sc2cnc(Nc3cnn(C)c3)nc12` [Compound 12, N-(7-{2-methoxy-4-[(3R)-3-tetrahydrofuranoxyl]phenyl]-6-methylthieno[3,2-d]pyrimidinyl-2-yl]-1-methyl-1H-pyrazol-4-amine]: the IC50 on JAK3 kinase was found to be 1.4 nM; at JAK2 kinase it was 1.8 nM; at JAK1 kinase it was 12 nM.

For the molecule `COc1cc(O[C@H]2CCOC2)ccc1-c1c(C)sc2cnc(Nc3cnn(C)c3)nc12` [Compound 15, N-(7-{2-methoxy-4-[(3S)-3-tetrahydrofuranoxy]phenyl}-6-methylthieno[3,2-d]pyrimidinyl-2-yl]-1-methyl-1H-pyrazol-4-amine], the IC50 on JAK3 kinase is 2.1 nM; on JAK2 kinase it was 1.8 nM; at JAK1 kinase, 13 nM.

For `COc1cc(OCCCN2CCC2)ccc1-c1c(C)sc2cnc(Nc3cnn(C)c3)nc12` [Compound 16], the 50% inhibitory concentration (IC50) was 6.4 nM at JAK3 kinase, 6.1 nM at JAK2 kinase and 34 nM at JAK1 kinase.

For the molecule `COc1cc(OCCCN2CCOCC2)ccc1-c1c(C)sc2cnc(Nc3cnn(C)c3)nc12` [Compound 17, N-(7-{2-methoxy-4-[3-(4-morpholinyl)propoxy]phenyl}-6-methylthieno[3,2-d]pyrimidinyl-2-yl)-1-methyl-1H-pyrazol-4-amine], the IC50 at JAK3 kinase was 1.3 nM; at JAK2 kinase it was 2.3 nM; at JAK1 kinase, 16 nM.

Consider `COc1cc(OCCCN2CCCC2)ccc1-c1c(C)sc2cnc(Nc3cnn(C)c3)nc12` [Compound 18, N-(7-{2-methoxy-4-[3-(1-pyrrolidinyl)propoxy]phenyl}-6-methylthieno[3,2-d]pyrimidinyl-2-yl)-1-methyl-1H-pyrazol-4-amine], for which the values for the IC50 on JAK3 kinase, at JAK2 kinase and at JAK1 kinase were 4.5 nM, 4.3 nM and 20 nM, respectively.

Take `COc1ccccc1-c1c(C)sc2cnc(Nc3cnn(CCO)c3)nc12` [Compound 21, 2-(4-{[7-(2-methoxyphenyl)-6-methylthieno[3,2-d]pyrimidinyl-2-yl]amino}-1H-pyrazol-1-yl)-1-ethanol]: the IC50 at JAK3 kinase came out at 0.39 nM; on JAK2 kinase it was 0.31 nM; on JAK1 kinase, 1.3 nM.

In the case of `COc1ccccc1-c1c(C)sc2cnc(Nc3cnn(CCN4CCN(C)CC4)c3)nc12` [Compound 22], the results for the IC50 at JAK3 kinase, at JAK2 kinase and on JAK1 kinase were 1.5 nM, 1.7 nM and 43 nM, respectively.

Consider `COc1cc(OCC(=O)N2CCC2)ccc1-c1c(C)sc2cnc(Nc3cnn(C)c3)nc12` [Compound 23], for which the IC50 turned out to be 0.64 nM on JAK3 kinase, 0.37 nM at JAK2 kinase and 1.1 nM at JAK1 kinase.

Turning to `COc1cc(OCCCS(C)(=O)=O)ccc1-c1c(C)sc2cnc(Nc3cnn(CCO)c3)nc12` [Compound 24, 2-(4-{[7-(4-(3-methylsulfonylpropoxy)-2-methoxyphenyl]-6-methylthieno[3,2-d]pyrimidinyl-2-yl}amino)-1H-pyrazol-1-yl]-1-ethanol], the IC50 at JAK3 kinase was determined as 1.3 nM; at JAK2 kinase, 0.94 nM; at JAK1 kinase, 9 nM.

For `COc1ccccc1-c1c(C)sc2cnc(Nc3cnn(C4CCN(C)CC4)c3)nc12` [Compound 25, N-[7-(2-methoxyphenyl)-6-methylthieno[3,2-d]pyrimidinyl-2-yl]-1-(1-methylpiperidin-4-yl)-1H-pyrazol-4-amine], the IC50 on JAK3 kinase was 1.3 nM; at JAK2 kinase it was 0.6 nM; at JAK1 kinase, 3.6 nM.

For the molecule `COc1ccccc1-c1c(C)sc2cnc(Nc3cnn(CCCN4CCCC4)c3)nc12` [Compound 26, N-[7-(2-methoxyphenyl)-6-methylthieno[3,2-d]pyrimidinyl-2-yl]-1-[3-(1-pyrrolidinyl)propyl]-1H-pyrazol-4-amine], the results for the IC50 on JAK3 kinase, at JAK2 kinase and on JAK1 kinase were 1.6 nM, 1.6 nM and 12 nM, respectively.

On to `COc1cc(F)ccc1-c1c(C)sc2cnc(Nc3cnn(CCCN4CCCC4)c3)nc12` [Compound 27, N-[7-(4-fluoro-2-methoxyphenyl)-6-methylthieno[3,2-d]pyrimidinyl-2-yl]-1-[3-(1-pyrrolidinyl)propyl]-1H-pyrazol-4-amine], for which the half-maximal inhibitory concentration (IC50) at JAK3 kinase stood at 1.6 nM; at JAK2 kinase, 2.3 nM; on JAK1 kinase, 10 nM.

On to `CN(c1ccccc1-c1csc2cnc(Nc3cnn(C)c3)nc12)S(C)(=O)=O` [Compound 28, N-methyl-N-(2-{2-[(1-methyl-1H-pyrazol-4-yl)amino]thieno[3,2-d]pyrimidinyl-7-yl}phenyl)methanesulfonamide], for which the IC50 at JAK3 kinase came to 1.3 nM; on JAK2 kinase, 23 nM; at JAK1 kinase, 75.8 nM.

Take `Cc1sc2cnc(Nc3cnn(C)c3)nc2c1-c1ccccc1OC(C)C` [Compound 29, 1-Methyl-N-{6-methyl-7-[2-(isopropoxy)phenyl]thieno[3,2-d]pyrimidinyl-2-yl]-1H-pyrazol-4-amine]: the IC50 on JAK3 kinase was determined as 15.9 nM; at JAK2 kinase it was 0.8 nM; at JAK1 kinase, 30.4 nM.
